The record followed here is US20050282755A1, “Compositions having antimicrobial activity and uses thereof” (priority 2004, published 2005).

≈ marks a conversion by molar mass, not a printed value. Non-standard residues stand in square brackets, D forms with d. Residues, ends and D or L forms follow the SMILES beside them. *: point of attachment. Palmitoyl = CCCCCCCCCCCCCCCC(=O)*; Lauroyl = CCCCCCCCCCCC(=O)*; Hexanoyl = CCCCCC(=O)*

Holding throughout (assay type): cell-based
In assay [1] the test system is Staphylococcus aureus ATCC 29213. Briefly: MIC, NCCLS M7-A6 broth microdilution, cation-adjusted Mueller Hinton broth (Table 9, no superscript). The following applies: ATCC 29213. The essentials: (§1)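 CAMHB microdilution; final inoculum 5×10^5–1×10^6 CFU/milliliter from log-phase culture; overnight, 37° C; MIC = lowest peptide conc. without visible growth (turbidity) vs no-peptide control.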
A general note: Broth dilution looks for growth in wells or tubes with falling amounts of substance.

For assay [2], the system named is Escherichia coli ATCC 25922. The experiment in a line: MIC, NCCLS M7-A6 broth microdilution (Table 9, no superscript). The following applies: ATCC 25922. The essentials: as §1
The subject of assay [3] is Pseudomonas aeruginosa ATCC 27853. The assay is described as above. The following applies: ATCC 27853. The essentials: as §1
The subject of assay [4] is Salmonella dublin (Lane). Described as above. The gist of the method: as §1
Assay [5] concerns Staphylococcus epidermidis ATCC 12228. Described as above. To be noted: ATCC 12228. The gist of the method: as §1

On to `CCCCCCCCCCCCCCCC(=O)NCCCC[C@@H](NC(=O)[C@@H](CCCNC(=N)N)NC(=O)[C@@H](CC(C)C)NC(=O)[C@@H](Cc1ccccc1)NC(=O)[C@@H](CC(N)=O)NC(=O)[C@@H](CCCNC(=N)N)NC(=O)[C@@H](C)NC(=O)[C@H](NC(=O)[C@@H](CC(=O)O)NC(=O)[C@@H](CCCNC(=N)N)NC(=O)[C@@H](Cc1c[nH]c2ccccc12)NC(=O)[C@@H](CCCNC(=N)N)NC(=O)[C@@H](CO)NC(=O)[C@H](N)CCCNC(=N)N)C(C)C)C(N)=O` [Peptide 196, H2N-rsrwrdvarnflrk(Palmitoyl)-NH2] (H-[dR][dS][dR][dW][dR][dD][dV][dA][dR][dN][dF][dL][dR][dK](Palmitoyl)-NH2), for which, in assay [1], the “MIC S. aureus” value is 64 µg/mL (≈ 30.5 µM). Moreover, the “MIC E. coli” value in assay [2] is over 64 µg/mL. For the same molecule, the “MIC P. aeruginosa” value in assay [3] is over 64 µg/mL. Further, in assay [4], the “MIC S. dublin” value came to 64 µg/mL (≈ 30.5 µM). In addition, the “MIC S. epidermidis” value in assay [5] amounted to 32 µg/mL (≈ 15.3 µM).

Regarding `CCCCCC(=O)N[C@H](CCCNC(=N)N)C(=O)N[C@H](CO)C(=O)N[C@H](CCCNC(=N)N)C(=O)N[C@H](Cc1c[nH]c2ccccc12)C(=O)N[C@H](CCCNC(=N)N)C(=O)N[C@H](CC(=O)O)C(=O)N[C@@H](C(=O)N[C@H](C)C(=O)N[C@H](CCCNC(=N)N)C(=O)N[C@H](CC(N)=O)C(=O)N[C@H](Cc1ccccc1)C(=O)N[C@H](CCSC)C(=O)N[C@H](CCCNC(=N)N)C(N)=O)C(C)C` [Peptide 206, Hexyl-rsrwrdvarnfmr-NH2] (Hexanoyl-[dR][dS][dR][dW][dR][dD][dV][dA][dR][dN][dF][dM][dR]-NH2), the “MIC S. aureus” value in assay [1] was over 64 µg/mL. Moreover, the “MIC E. coli” value in assay [2] stood at 64 µg/mL (≈ 34.6 µM). Further, the “MIC P. aeruginosa” value in assay [3] is over 64 µg/mL. The “MIC S. dublin” value in assay [4] is over 64 µg/mL. In addition, the “MIC S. epidermidis” value in assay [5] turned out to be 32 µg/mL (≈ 17.3 µM).

For the molecule `CCCCCCCCCCCC(=O)N[C@H](CCCNC(=N)N)C(=O)N[C@H](C)C(=O)N[C@H](CCCNC(=N)N)C(=O)N[C@H](Cc1c[nH]c2ccccc12)C(=O)N[C@H](CCCNC(=N)N)C(=O)N[C@H](C)C(=O)N[C@@H](C(=O)N[C@H](C)C(=O)N[C@H](CCCNC(=N)N)C(=O)N[C@H](C)C(=O)N[C@H](Cc1ccccc1)C(=O)N[C@H](C)C(=O)N[C@H](CCCNC(=N)N)C(N)=O)C(C)C` [Peptide 217, Lauryl-rarwravarafar-NH2] (Lauroyl-[dR][dA][dR][dW][dR][dA][dV][dA][dR][dA][dF][dA][dR]-NH2), the “MIC S. aureus” value in assay [1] stood at 1 µg/mL (≈ 0.566 µM). Further, the “MIC E. coli” value in assay [2] was found to be 16 µg/mL (≈ 9.05 µM). Also, in assay [3], the “MIC P. aeruginosa” value is 8 µg/mL (≈ 4.52 µM). Also, the “MIC S. dublin” value in assay [4] was 2 µg/mL (≈ 1.13 µM). Also, the “MIC S. epidermidis” value in assay [5] is 2 µg/mL (≈ 1.13 µM).

For `CCCCCCCCCCCC(=O)N[C@H](CCCNC(=N)N)C(=O)N[C@H](CO)C(=O)N[C@H](C)C(=O)N[C@H](Cc1c[nH]c2ccccc12)C(=O)N[C@H](CCCNC(=N)N)C(=O)N[C@H](CC(=O)O)C(=O)N[C@@H](C(=O)N[C@H](C)C(=O)N[C@H](CCCNC(=N)N)C(=O)N[C@H](CC(N)=O)C(=O)N[C@H](Cc1ccccc1)C(=O)N[C@H](CCSC)C(=O)N[C@H](CCCNC(=N)N)C(N)=O)C(C)C` [Peptide 228, Lauryl-rsawrdvarnfmr-NH2] (Lauroyl-[dR][dS][dA][dW][dR][dD][dV][dA][dR][dN][dF][dM][dR]-NH2), the “MIC S. aureus” value in assay [1] was 64 µg/mL (≈ 34.7 µM). For the same molecule, in assay [2], the “MIC E. coli” value was over 64 µg/mL. In addition, the “MIC P. aeruginosa” value in assay [3] was over 64 µg/mL. Besides, the “MIC S. dublin” value in assay [4] was 64 µg/mL (≈ 34.7 µM). Further, the “MIC S. epidermidis” value in assay [5] was 16 µg/mL (≈ 8.67 µM).

For `CCCCCCCCCCCC(=O)N[C@H](CCCNC(=N)N)C(=O)N[C@H](CO)C(=O)N[C@H](CCCNC(=N)N)C(=O)N[C@H](Cc1c[nH]c2ccccc12)C(=O)N[C@H](C)C(=O)N[C@H](CC(=O)O)C(=O)N[C@@H](C(=O)N[C@H](C)C(=O)N[C@H](CCCNC(=N)N)C(=O)N[C@H](CC(N)=O)C(=O)N[C@H](Cc1ccccc1)C(=O)N[C@H](CCSC)C(=O)N[C@H](CCCNC(=N)N)C(N)=O)C(C)C` [Peptide 229, Lauryl-rsrwadvarnfmr-NH2] (Lauroyl-[dR][dS][dR][dW][dA][dD][dV][dA][dR][dN][dF][dM][dR]-NH2), the “MIC S. aureus” value in assay [1] was 8 µg/mL (≈ 4.33 µM). Further, the “MIC E. coli” value in assay [2] turned out to be 8 µg/mL (≈ 4.33 µM). Further, in assay [3], the “MIC P. aeruginosa” value stood at 8 µg/mL (≈ 4.33 µM). In addition, in assay [4], the “MIC S. dublin” value came out at 8 µg/mL (≈ 4.33 µM). The “MIC S. epidermidis” value in assay [5] is 4 µg/mL (≈ 2.17 µM).

`CCCCCCCCCCCC(=O)N[C@H](CCCNC(=N)N)C(=O)N[C@H](CO)C(=O)N[C@H](CCCNC(=N)N)C(=O)N[C@H](Cc1c[nH]c2ccccc12)C(=O)N[C@H](CCCNC(=N)N)C(=O)N[C@H](CC(=O)O)C(=O)N[C@@H](C(=O)N[C@H](C)C(=O)N[C@H](C)C(=O)N[C@H](CC(N)=O)C(=O)N[C@H](Cc1ccccc1)C(=O)N[C@H](CCSC)C(=O)N[C@H](CCCNC(=N)N)C(N)=O)C(C)C` [Peptide 230, Lauryl-rsrwrdvaanfmr-NH2] (Lauroyl-[dR][dS][dR][dW][dR][dD][dV][dA][dA][dN][dF][dM][dR]-NH2): the “MIC S. aureus” value in assay [1] is over 64 µg/mL. Besides, the “MIC E. coli” value in assay [2] is over 64 µg/mL. Besides, the “MIC P. aeruginosa” value in assay [3] was over 64 µg/mL. Besides, the “MIC S. dublin” value in assay [4] is over 64 µg/mL. For the same molecule, the “MIC S. epidermidis” value in assay [5] is 4 µg/mL (≈ 2.17 µM).

For `CCCCCCCCCCCC(=O)N[C@H](CCCNC(=N)N)C(=O)N[C@H](CO)C(=O)N[C@H](CCCNC(=N)N)C(=O)N[C@H](Cc1c[nH]c2ccccc12)C(=O)N[C@H](CCCNC(=N)N)C(=O)N[C@H](CC(=O)O)C(=O)N[C@@H](C(=O)N[C@H](C)C(=O)N[C@H](CCCNC(=N)N)C(=O)N[C@H](CC(N)=O)C(=O)N[C@H](Cc1ccccc1)C(=O)N[C@H](CCSC)C(=O)N[C@H](C)C(N)=O)C(C)C` [Peptide 231, Lauryl-rsrwrdvarnfma-NH2] (Lauroyl-[dR][dS][dR][dW][dR][dD][dV][dA][dR][dN][dF][dM][dA]-NH2), the “MIC S. aureus” value in assay [1] was 32 µg/mL (≈ 17.3 µM). In addition, the “MIC E. coli” value in assay [2] was over 64 µg/mL. In addition, in assay [3], the “MIC P. aeruginosa” value came to 32 µg/mL (≈ 17.3 µM). For the same molecule, the “MIC S. dublin” value in assay [4] is over 64 µg/mL. Also, the “MIC S. epidermidis” value in assay [5] is 4 µg/mL (≈ 2.17 µM).

For `CCCCCCCCCCCC(=O)N[C@H](CCCNC(=N)N)C(=O)N[C@H](CO)C(=O)N[C@H](CCCNC(=N)N)C(=O)N[C@H](CO)C(=O)N[C@H](CCCNC(=N)N)C(=O)N[C@H](CC(=O)O)C(=O)N[C@@H](C(=O)N[C@H](C)C(=O)N[C@H](CCCNC(=N)N)C(=O)N[C@H](CC(N)=O)C(=O)N[C@H](Cc1ccccc1)C(=O)N[C@H](CCSC)C(=O)N[C@H](CCCNC(=N)N)C(N)=O)C(C)C` [Peptide 232, Lauryl-rsrsrdvarnfmr-NH2] (Lauroyl-[dR][dS][dR][dS][dR][dD][dV][dA][dR][dN][dF][dM][dR]-NH2), the “MIC S. aureus” value in assay [1] is over 64 µg/mL. For the same molecule, the “MIC E. coli” value in assay [2] is over 64 µg/mL. Besides, the “MIC P. aeruginosa” value in assay [3] is over 64 µg/mL. For the same molecule, the “MIC S. dublin” value in assay [4] is over 64 µg/mL. In addition, the “MIC S. epidermidis” value in assay [5] was found to be 16 µg/mL (≈ 8.73 µM).

As to `CCCCCCCCCCCC(=O)N[C@H](CCCNC(=N)N)C(=O)N[C@H](CO)C(=O)N[C@H](CCCNC(=N)N)C(=O)N[C@H](Cc1c[nH]c2ccccc12)C(=O)N[C@H](CCCNC(=N)N)C(=O)N[C@H](CC(=O)O)C(=O)N[C@@H](C(=O)N[C@H](C)C(=O)N[C@H](CCCNC(=N)N)C(=O)N[C@H](CC(N)=O)C(=O)N[C@H](CO)C(=O)N[C@H](CCSC)C(=O)N[C@H](CCCNC(=N)N)C(N)=O)C(C)C` [Peptide 234, Lauryl-rsrwrdvarnsmr-NH2] (Lauroyl-[dR][dS][dR][dW][dR][dD][dV][dA][dR][dN][dS][dM][dR]-NH2), the “MIC S. aureus” value in assay [1] is 64 µg/mL (≈ 34.2 µM). Further, the “MIC E. coli” value in assay [2] is over 64 µg/mL. In addition, the “MIC P. aeruginosa” value in assay [3] was over 64 µg/mL. The “MIC S. dublin” value in assay [4] was 64 µg/mL (≈ 34.2 µM). In addition, in assay [5], the “MIC S. epidermidis” value came out at 16 µg/mL (≈ 8.55 µM).

`CCCCCCCCCCCC(=O)N[C@H](CCCNC(=N)N)C(=O)N[C@H](CO)C(=O)N[C@H](CCCNC(=N)N)C(=O)N[C@H](Cc1c[nH]c2ccccc12)C(=O)N[C@H](CCCNC(=N)N)C(=O)N[C@H](CC(=O)O)C(=O)N[C@@H](C(=O)N[C@H](C)C(=O)N[C@H](CCCNC(=N)N)C(=O)N[C@H](CC(N)=O)C(=O)N[C@H](Cc1ccccc1)C(=O)N[C@H](CO)C(=O)N[C@H](CCCNC(=N)N)C(N)=O)C(C)C` [Peptide 235, Lauryl-rsrwrdvarnfsr-NH2] (Lauroyl-[dR][dS][dR][dW][dR][dD][dV][dA][dR][dN][dF][dS][dR]-NH2): in assay [1], the “MIC S. aureus” value came to 16 µg/mL (≈ 8.48 µM). Besides, the “MIC E. coli” value in assay [2] amounted to 16 µg/mL (≈ 8.48 µM). For the same molecule, the “MIC P. aeruginosa” value in assay [3] came to 64 µg/mL (≈ 33.9 µM). In addition, the “MIC S. dublin” value in assay [4] turned out to be 32 µg/mL (≈ 17 µM). Besides, the “MIC S. epidermidis” value in assay [5] was found to be 8 µg/mL (≈ 4.24 µM).

Take `CCCCCCCCCCCC(=O)N[C@H](C)C(=O)N[C@H](CO)C(=O)N[C@H](CCCNC(=N)N)C(=O)N[C@H](Cc1c[nH]c2ccccc12)C(=O)N[C@H](CCCNC(=N)N)C(=O)N[C@H](CC(=O)O)C(=O)N[C@@H](C(=O)N[C@H](C)C(=O)N[C@H](CCCNC(=N)N)C(=O)N[C@H](CC(N)=O)C(=O)N[C@H](Cc1ccccc1)C(=O)N[C@H](CCSC)C(=O)N[C@H](CCCNC(=N)N)C(N)=O)C(C)C` [Peptide 236, Lauryl-asrwrdvarnfmr-NH2] (Lauroyl-[dA][dS][dR][dW][dR][dD][dV][dA][dR][dN][dF][dM][dR]-NH2): the “MIC S. aureus” value in assay [1] was determined as 32 µg/mL (≈ 17.3 µM). Further, the “MIC E. coli” value in assay [2] is 64 µg/mL (≈ 34.7 µM). In addition, the “MIC P. aeruginosa” value in assay [3] is over 64 µg/mL. In assay [4], the “MIC S. dublin” value was over 64 µg/mL. Moreover, the “MIC S. epidermidis” value in assay [5] was determined as 16 µg/mL (≈ 8.67 µM).
